Each structure is given as a SMILES string.

The target in the assay is T1, hNav1.7 and the β1 subunit (Homo sapiens, UniProt Q15858).
T1 construct: expressed in transfected cells
T1 sequence (Q15858 whole entry): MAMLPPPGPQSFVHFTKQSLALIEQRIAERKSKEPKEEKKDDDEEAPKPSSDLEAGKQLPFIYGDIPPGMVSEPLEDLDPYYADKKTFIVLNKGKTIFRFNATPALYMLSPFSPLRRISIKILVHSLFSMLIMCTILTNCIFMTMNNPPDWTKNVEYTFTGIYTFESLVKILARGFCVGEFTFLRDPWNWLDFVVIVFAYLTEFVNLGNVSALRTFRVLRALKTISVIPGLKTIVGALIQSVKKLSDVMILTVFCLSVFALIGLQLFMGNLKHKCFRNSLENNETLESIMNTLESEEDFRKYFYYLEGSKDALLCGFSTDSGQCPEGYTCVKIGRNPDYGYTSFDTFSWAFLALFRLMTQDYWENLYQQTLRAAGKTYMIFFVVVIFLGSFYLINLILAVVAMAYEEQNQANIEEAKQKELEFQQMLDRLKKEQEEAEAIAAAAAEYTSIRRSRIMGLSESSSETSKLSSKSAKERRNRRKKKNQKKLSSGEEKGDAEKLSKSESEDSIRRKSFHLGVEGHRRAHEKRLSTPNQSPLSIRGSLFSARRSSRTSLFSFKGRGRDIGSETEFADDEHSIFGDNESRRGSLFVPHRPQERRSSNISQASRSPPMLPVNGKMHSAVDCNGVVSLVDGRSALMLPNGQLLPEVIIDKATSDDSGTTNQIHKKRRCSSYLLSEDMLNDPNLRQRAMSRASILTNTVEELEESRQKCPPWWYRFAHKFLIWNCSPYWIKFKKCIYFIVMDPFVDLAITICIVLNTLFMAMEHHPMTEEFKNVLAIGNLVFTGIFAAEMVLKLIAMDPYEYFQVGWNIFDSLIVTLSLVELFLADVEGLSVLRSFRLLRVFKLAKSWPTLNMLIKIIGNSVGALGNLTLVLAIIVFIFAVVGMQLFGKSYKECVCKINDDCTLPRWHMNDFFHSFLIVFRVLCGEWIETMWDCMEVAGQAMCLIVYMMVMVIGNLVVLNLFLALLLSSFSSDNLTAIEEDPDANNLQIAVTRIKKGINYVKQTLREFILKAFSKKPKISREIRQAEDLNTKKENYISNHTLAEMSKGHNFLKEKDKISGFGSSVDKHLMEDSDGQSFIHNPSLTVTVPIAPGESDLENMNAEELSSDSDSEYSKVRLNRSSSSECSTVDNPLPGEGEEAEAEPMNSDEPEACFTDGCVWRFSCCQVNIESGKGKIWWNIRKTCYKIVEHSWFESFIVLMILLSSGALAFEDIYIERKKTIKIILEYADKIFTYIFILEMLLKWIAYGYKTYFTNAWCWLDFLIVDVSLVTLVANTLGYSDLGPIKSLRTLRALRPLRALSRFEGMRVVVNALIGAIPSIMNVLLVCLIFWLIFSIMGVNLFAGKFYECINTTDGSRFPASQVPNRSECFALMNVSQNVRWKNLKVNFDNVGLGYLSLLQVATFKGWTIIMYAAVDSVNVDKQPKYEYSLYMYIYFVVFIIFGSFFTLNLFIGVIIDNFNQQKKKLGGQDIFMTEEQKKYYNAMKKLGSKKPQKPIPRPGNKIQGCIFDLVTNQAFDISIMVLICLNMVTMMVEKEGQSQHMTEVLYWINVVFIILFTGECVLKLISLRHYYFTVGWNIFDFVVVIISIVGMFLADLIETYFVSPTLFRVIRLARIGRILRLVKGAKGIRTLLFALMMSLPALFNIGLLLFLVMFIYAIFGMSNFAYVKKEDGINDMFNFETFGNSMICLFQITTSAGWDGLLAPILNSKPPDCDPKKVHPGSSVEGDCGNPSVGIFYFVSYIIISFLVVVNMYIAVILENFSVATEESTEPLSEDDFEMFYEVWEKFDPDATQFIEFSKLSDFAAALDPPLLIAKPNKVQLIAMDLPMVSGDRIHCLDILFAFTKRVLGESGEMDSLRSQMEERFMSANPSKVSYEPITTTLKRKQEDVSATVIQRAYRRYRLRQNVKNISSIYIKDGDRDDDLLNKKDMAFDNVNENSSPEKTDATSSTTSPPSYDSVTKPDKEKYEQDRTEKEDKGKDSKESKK
T1 sequence (Q07699 19-218 partner): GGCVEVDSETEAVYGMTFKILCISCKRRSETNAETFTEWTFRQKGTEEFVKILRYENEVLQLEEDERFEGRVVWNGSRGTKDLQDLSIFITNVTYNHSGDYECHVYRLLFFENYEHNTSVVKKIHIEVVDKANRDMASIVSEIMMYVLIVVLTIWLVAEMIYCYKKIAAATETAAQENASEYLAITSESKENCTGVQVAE
The experiment in a line: Tritiated compound competitive binding to membranes from cells heterologously expressing hNav1.7 and the β1 subunit (LBA). The following applies: competition with 100 pM [3H]compound, 18 h, room temperature; IC50 by 4 parameter logistic model. How it is done:
Example 235 Tritiated Compound Binding to Membranes Isolated from Cells that Heterologously Express hNav1.7 and the β1 Subunit
Preparation of membranes containing recombinantly expressed sodium channels: Frozen recombinant cell pellets were thawed on ice and diluted to 4 times the cell pellet weight with ice cold 50 mM Tris HCl, pH 7.4 buffer. The cell suspensions were homogenized on ice using a motorized glass dounce homogeniser. Homogenates were further diluted 8.4 times with ice cold 50 mM Tris HCl, pH 7.4 buffer and then centrifuged at 200×g at 4° C. for 15 min. The supernatants were collected and centrifuged at 10000×g at 4° C. for 50 min. The pellets were then re-suspended in 100 mM NaCl, 20 mM Tris HCl, pH 7.4 buffer containing 1% v/v protease inhibitors (Calbiochem) and re-homogenized on ice. The homogenized membranes were then processed through a syringe equipped with a 26 gauge needle. Protein concentrations were determined by Bradford Assay and the membranes were stored at −80° C.
Radioligand Binding Studies:
Saturation experiments. A competitive NaV1.7 inhibitor having a methyl group was tritiated. Three tritiums were incorporated in place of methyl hydrogens to generate [^3H]compound. Binding of this radioligand was performed in 5 mL borosilicate glass test tubes at room temperature. Binding was initiated by adding membranes to increasing concentrations of [^3H]compound in 100 mM NaCl, 20 mM Tris HCl, pH 7.4 buffer containing 0.01% w/v bovine serum albumin (BSA) for 18 h. […] After 18 h, the reactants were filtered through GF/C glass fiber filters presoaked in 0.5% w/v polyethylene imine. […] [^3H]compound bound to filters was quantified by liquid scintillation counting.
Competitive Binding Experiments:
Binding reactions were performed in 96-well polypropylene plates at room temperature for 18 h. In 360 μL, membranes were incubated with 100 pM [^3H]compound and increasing concentrations of Test Compound. […] Reactions were transferred and filtered through 96-well glass fiber/C filter plates presoaked with 0.5% polyethylene imine. The filtered reactions were washed 5 times with 200 μL ice cold buffer containing 0.25% BSA. Bound radioactivity was determined by liquid scintillation counting.
Data Analysis: For saturation experiments, non-specific binding was subtracted from total binding to provide specific binding and these values were recalculated in terms of pmol ligand bound per mg protein. Saturation curves were constructed and dissociation constants were calculated using the single site ligand binding model: Beq=(Bmax*X)/(X+Kd), where Beq is the amount of ligand bound at equilibrium, Bmax is the maximum receptor density, Kd is the dissociation constant for the ligand, and X is the free ligand concentration. For competition studies percent inhibition was determined and IC50 values were calculated using a 4 parameter logistic model (% inhibition=(A+((B−A)/(1+((x/C)^D)))) using XLfit, where A and B are the maximal and minimum inhibition respectively, C is the IC50 concentration and D is the (Hill) slope.
In the case of `Cn1nccc1[C@@H]1C[C@H](C(F)(F)F)CCN1[C@H]1CCOc2cc(S(=O)(=O)Nc3ncns3)ccc21` (single isomer, unassigned) [Example 123], the “Nav1.7 (LBA)” value came out at 0.000616 µM.

On to `Cn1nccc1[C@@H]1C[C@H](C(F)(F)F)CCN1[C@@H]1CCOc2cc(S(=O)(=O)Nc3ncns3)ccc21` (single isomer, unassigned) [Example 124], for which the “Nav1.7 (LBA)” value came out at 0.601 µM.

For `Cn1nccc1[C@H]1C[C@@H](C(F)(F)F)CCN1[C@H]1CCOc2cc(S(=O)(=O)Nc3ncns3)ccc21` (single isomer, unassigned) [Example 125], the “Nav1.7 (LBA)” value is 0.00448 µM.

On to `Cn1nccc1[C@H]1C[C@@H](C(F)(F)F)CCN1[C@@H]1CCOc2cc(S(=O)(=O)Nc3ncns3)ccc21` (single isomer, unassigned) [Example 126], for which the “Nav1.7 (LBA)” value was 0.313 µM.

Regarding `CC(C)[C@@H]1CCN([C@H]2CCOc3cc(S(=O)(=O)Nc4ncns4)ccc32)[C@H](c2ccccc2)C1` (single isomer, unassigned) [Example 127], the “Nav1.7 (LBA)” value was 0.00883 µM.

Regarding `CC(C)[C@@H]1CCN([C@@H]2CCOc3cc(S(=O)(=O)Nc4ncns4)ccc32)[C@H](c2ccccc2)C1` (single isomer, unassigned) [Example 128], the “Nav1.7 (LBA)” value was 0.469 µM.

Take `CC(C)[C@H]1CCN([C@H]2CCOc3cc(S(=O)(=O)Nc4ncns4)ccc32)[C@@H](c2ccccc2)C1` (single isomer, unassigned) [Example 129]: the “Nav1.7 (LBA)” value turned out to be 0.0168 µM.

Take `CC(C)[C@H]1CCN([C@@H]2CCOc3cc(S(=O)(=O)Nc4ncns4)ccc32)[C@@H](c2ccccc2)C1` (single isomer, unassigned) [Example 130]: the “Nav1.7 (LBA)” value is 0.109 µM.

Take `O=S(=O)(Nc1ncns1)c1ccc2c(c1)OCC[C@@H]2N1CCC(F)(F)C[C@@H]1c1ccc(F)cc1` (single isomer, unassigned) [Example 131]: the “Nav1.7 (LBA)” value came to 0.00851 µM.

Regarding `O=S(=O)(Nc1ncns1)c1ccc2c(c1)OCC[C@H]2N1CCC(F)(F)C[C@@H]1c1ccc(F)cc1` (single isomer, unassigned) [Example 132], the “Nav1.7 (LBA)” value worked out at 0.0757 µM.

On to `O=S(=O)(Nc1ncns1)c1ccc2c(c1)OCC[C@H]2N1CCC(F)(F)C[C@H]1c1ccc(F)cc1` (single isomer, unassigned) [Example 133], for which the “Nav1.7 (LBA)” value came out at 0.0467 µM.

Take `O=S(=O)(Nc1ncns1)c1ccc2c(c1)OCC[C@@H]2N1CCC(F)(F)C[C@H]1c1ccc(F)cc1` (single isomer, unassigned) [Example 134]: the “Nav1.7 (LBA)” value came to 0.00295 µM.

For the compound `CC(C)(O)[C@H]1CCN([C@@H]2CCOc3cc(S(=O)(=O)Nc4ncns4)ccc32)[C@@H](c2ccc(F)cc2)C1` (single isomer, unassigned) [Example 135], the “Nav1.7 (LBA)” value was 0.0271 µM.

As to `CC(C)(O)[C@H]1CCN([C@H]2CCOc3cc(S(=O)(=O)Nc4ncns4)ccc32)[C@@H](c2ccc(F)cc2)C1` (single isomer, unassigned) [Example 136], the “Nav1.7 (LBA)” value worked out at 0.0194 µM.

On to `CC(C)(O)[C@@H]1CCN([C@@H]2CCOc3cc(S(=O)(=O)Nc4ncns4)ccc32)[C@H](c2ccc(F)cc2)C1` (single isomer, unassigned) [Example 137], for which the “Nav1.7 (LBA)” value stood at 0.736 µM.

As for `CC(C)(O)[C@@H]1CCN([C@H]2CCOc3cc(S(=O)(=O)Nc4ncns4)ccc32)[C@H](c2ccc(F)cc2)C1` (single isomer, unassigned) [Example 138], the “Nav1.7 (LBA)” value turned out to be 0.0035 µM.

As for `O=S(=O)(Nc1ncns1)c1ccc2c(c1)OCC[C@H]2N1CCC(F)(F)C[C@H]1c1ccccc1` (single isomer, unassigned) [Example 139], the “Nav1.7 (LBA)” value was determined as 2.29 µM.

Turning to `O=S(=O)(Nc1ncns1)c1ccc2c(c1)OCC[C@@H]2N1CCC(F)(F)C[C@H]1c1ccccc1` (single isomer, unassigned) [Example 140], the “Nav1.7 (LBA)” value came to 0.0144 µM.

As for `O=S(=O)(Nc1ncns1)c1ccc2c(c1)OCC[C@H]2N1CCC(F)(F)C[C@@H]1c1ccccc1` (single isomer, unassigned) [Example 141], the “Nav1.7 (LBA)” value was 0.486 µM.

Take `O=S(=O)(Nc1ncns1)c1ccc2c(c1)OCC[C@@H]2N1CCC(F)(F)C[C@@H]1c1ccccc1` (single isomer, unassigned) [Example 142]: the “Nav1.7 (LBA)” value came to 0.0173 µM.

For the compound `O=S(=O)(Nc1ncns1)c1ccc2c(c1)OCC[C@@H]2N1CC[C@@H](C(F)(F)F)C[C@H]1c1ccn[nH]1` (single isomer, unassigned) [Example 143], the “Nav1.7 (LBA)” value is 8.9 µM.

Regarding `O=S(=O)(Nc1ncns1)c1ccc2c(c1)OCC[C@H]2N1CC[C@@H](C(F)(F)F)C[C@H]1c1ccn[nH]1` (single isomer, unassigned) [Example 144], the “Nav1.7 (LBA)” value was determined as 0.282 µM.

Turning to `O=S(=O)(Nc1ncns1)c1ccc2c(c1)OCC[C@@H]2N1CC[C@H](C(F)(F)F)C[C@@H]1c1ccn[nH]1` (single isomer, unassigned) [Example 145], the “Nav1.7 (LBA)” value is 0.0117 µM.

Consider `O=S(=O)(Nc1ncns1)c1ccc2c(c1)OCC[C@H]2N1CC[C@H](C(F)(F)F)C[C@@H]1c1ccn[nH]1` (single isomer, unassigned) [Example 146], for which the “Nav1.7 (LBA)” value turned out to be 0.308 µM.

In the case of `O=S(=O)(Nc1ncns1)c1ccc2c(c1)OCC[C@@H]2N1CCCC[C@H]1CCO` (single isomer, unassigned) [Example 151], the “Nav1.7 (LBA)” value stood at 3.51 µM.

`O=S(=O)(Nc1ncns1)c1ccc2c(c1)OCC[C@@H]2N1CCCC[C@@H]1CCO` (single isomer, unassigned) [Example 152]: the “Nav1.7 (LBA)” value was 3.31 µM.

Regarding `O=S(=O)(Nc1ncns1)c1ccc2c(c1)OCC[C@@H]2N1CCCC[C@H]1C1CCCCC1` (single isomer, unassigned) [Example 155], the “Nav1.7 (LBA)” value turned out to be 4.35 µM.

Regarding `O=S(=O)(Nc1ncns1)c1ccc2c(c1)OCC[C@@H]2N1CCCC[C@@H]1C1CCCCC1` (single isomer, unassigned) [Example 156], the “Nav1.7 (LBA)” value amounted to 0.907 µM.

For the compound `O=S(=O)(Nc1ncns1)c1ccc2c(c1)C(F)(F)CC[C@@H]2N1CCCC[C@H]1c1cccnc1` (single isomer, unassigned) [Example 227], the “Nav1.7 (LBA)” value stood at 0.249 µM.

Take `O=S(=O)(Nc1ncns1)c1ccc2c(c1)C(F)(F)CC[C@H]2N1CCCC[C@H]1c1cccnc1` (single isomer, unassigned) [Example 228]: the “Nav1.7 (LBA)” value amounted to 0.504 µM.

For the compound `Cn1nccc1[C@@H]1CCCCN1[C@H]1CCOc2cc(S(=O)(=O)Nc3ncns3)ccc21` [Example 41, (S)-4-((S)-2-(1-methyl-1H-pyrazol-5-yl)piperidin-1-yl)-N-(1,2,4-thiadiazol-5-yl)chromane-7-sulfonamide], the “Nav1.7 (LBA)” value was 0.00609 µM.

As for `Cn1nccc1[C@H]1CCCCN1[C@H]1CCOc2cc(S(=O)(=O)Nc3ncns3)ccc21` [Example 42, (S)-4-((R)-2-(1-methyl-1H-pyrazol-5-yl)piperidin-1-yl)-N-(1,2,4-thiadiazol-5-yl)chromane-7-sulfonamide], the “Nav1.7 (LBA)” value worked out at 0.142 µM.

Take `O=S(=O)(Nc1ncns1)c1ccc2c(c1)OCC[C@@H]2N1CCC(C(F)(F)F)CC1` [Example 44, (S)—N-(1,2,4-thiadiazol-5-yl)-4-(4-(trifluoromethyl)piperidin-1-yl)chromane-7-sulfonamide]: the “Nav1.7 (LBA)” value amounted to 0.551 µM.

Turning to `O=S(=O)(Nc1ncns1)c1ccc(CN2CCC[C@H]2c2ccccc2)c(Cl)c1` [Example 48, (S)-3-chloro-4-((2-phenylpyrrolidin-1-yl)methyl)-N-(1,2,4-thiadiazol-5-yl)benzenesulfonamide], the “Nav1.7 (LBA)” value was found to be 1.48 µM.

For the compound `O=S(=O)(Nc1ncns1)c1ccc(CN2CCC[C@@H]2c2ccccc2)c(Cl)c1` [Example 49, (R)-3-chloro-4-((2-phenylpyrrolidin-1-yl)methyl)-N-(1,2,4-thiadiazol-5-yl)benzenesulfonamide], the “Nav1.7 (LBA)” value was determined as 6.81 µM.

Regarding `O=S(=O)(Nc1ncns1)c1ccc(CN2CCCCC2c2ccccc2)c(Cl)c1` (stereo not drawn) [Example 63, 3-chloro-4-((2-phenylpiperidin-1-yl)methyl)-N-(1,2,4-thiadiazol-5-yl)benzenesulfonamide], the “Nav1.7 (LBA)” value stood at 0.609 µM.
